Laboratory results from article PMC8213057, “Targeting ALK2: An Open Science Approach to Developing Therapeutics for the Treatment of Diffuse Intrinsic Pontine Glioma” (Journal of Medicinal Chemistry, 2020).

Tests used:
ERK7/MAPK15 = target: T1, ERK7/MAPK15 (Homo sapiens, UniProt Q8TD08); settings: 1 μM; Run 1, Run 2
T1 sequence (Q8TD08 1-544): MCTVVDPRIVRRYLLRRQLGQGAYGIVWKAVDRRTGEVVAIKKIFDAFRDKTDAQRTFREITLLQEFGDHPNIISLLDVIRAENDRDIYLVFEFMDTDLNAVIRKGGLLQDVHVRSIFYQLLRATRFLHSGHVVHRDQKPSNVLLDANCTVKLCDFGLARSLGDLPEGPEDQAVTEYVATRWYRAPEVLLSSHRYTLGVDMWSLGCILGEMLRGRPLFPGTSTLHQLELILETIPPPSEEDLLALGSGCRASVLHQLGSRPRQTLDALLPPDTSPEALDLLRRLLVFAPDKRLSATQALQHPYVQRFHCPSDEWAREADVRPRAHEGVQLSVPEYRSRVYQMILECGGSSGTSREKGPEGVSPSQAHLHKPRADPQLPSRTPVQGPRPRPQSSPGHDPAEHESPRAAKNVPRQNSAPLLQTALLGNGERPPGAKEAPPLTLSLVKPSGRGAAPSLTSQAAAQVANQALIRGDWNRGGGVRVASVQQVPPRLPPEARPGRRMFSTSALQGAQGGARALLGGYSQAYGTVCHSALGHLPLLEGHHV

NEK2 = target: T2, NEK2 (Homo sapiens, UniProt P51955); settings: 1 μM; Run 1, Run 2
T2 sequence (P51955 1-445): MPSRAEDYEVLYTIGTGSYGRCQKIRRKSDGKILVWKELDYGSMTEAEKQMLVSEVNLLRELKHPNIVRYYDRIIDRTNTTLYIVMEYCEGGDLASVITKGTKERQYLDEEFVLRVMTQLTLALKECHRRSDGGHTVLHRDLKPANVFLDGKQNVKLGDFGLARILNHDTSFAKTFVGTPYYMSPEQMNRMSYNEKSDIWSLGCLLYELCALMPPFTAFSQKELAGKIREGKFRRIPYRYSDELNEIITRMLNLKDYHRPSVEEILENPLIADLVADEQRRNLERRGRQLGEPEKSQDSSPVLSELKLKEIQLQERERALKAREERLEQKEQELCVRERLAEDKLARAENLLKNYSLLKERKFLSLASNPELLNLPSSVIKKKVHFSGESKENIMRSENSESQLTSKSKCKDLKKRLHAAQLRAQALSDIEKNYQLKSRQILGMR

ROS/ROS1 = ROS/ROS1 (Homo sapiens, UniProt P08922); settings: 1 μM; Run 1, Run 2
Sequence of ROS/ROS1 (P08922 28-2347): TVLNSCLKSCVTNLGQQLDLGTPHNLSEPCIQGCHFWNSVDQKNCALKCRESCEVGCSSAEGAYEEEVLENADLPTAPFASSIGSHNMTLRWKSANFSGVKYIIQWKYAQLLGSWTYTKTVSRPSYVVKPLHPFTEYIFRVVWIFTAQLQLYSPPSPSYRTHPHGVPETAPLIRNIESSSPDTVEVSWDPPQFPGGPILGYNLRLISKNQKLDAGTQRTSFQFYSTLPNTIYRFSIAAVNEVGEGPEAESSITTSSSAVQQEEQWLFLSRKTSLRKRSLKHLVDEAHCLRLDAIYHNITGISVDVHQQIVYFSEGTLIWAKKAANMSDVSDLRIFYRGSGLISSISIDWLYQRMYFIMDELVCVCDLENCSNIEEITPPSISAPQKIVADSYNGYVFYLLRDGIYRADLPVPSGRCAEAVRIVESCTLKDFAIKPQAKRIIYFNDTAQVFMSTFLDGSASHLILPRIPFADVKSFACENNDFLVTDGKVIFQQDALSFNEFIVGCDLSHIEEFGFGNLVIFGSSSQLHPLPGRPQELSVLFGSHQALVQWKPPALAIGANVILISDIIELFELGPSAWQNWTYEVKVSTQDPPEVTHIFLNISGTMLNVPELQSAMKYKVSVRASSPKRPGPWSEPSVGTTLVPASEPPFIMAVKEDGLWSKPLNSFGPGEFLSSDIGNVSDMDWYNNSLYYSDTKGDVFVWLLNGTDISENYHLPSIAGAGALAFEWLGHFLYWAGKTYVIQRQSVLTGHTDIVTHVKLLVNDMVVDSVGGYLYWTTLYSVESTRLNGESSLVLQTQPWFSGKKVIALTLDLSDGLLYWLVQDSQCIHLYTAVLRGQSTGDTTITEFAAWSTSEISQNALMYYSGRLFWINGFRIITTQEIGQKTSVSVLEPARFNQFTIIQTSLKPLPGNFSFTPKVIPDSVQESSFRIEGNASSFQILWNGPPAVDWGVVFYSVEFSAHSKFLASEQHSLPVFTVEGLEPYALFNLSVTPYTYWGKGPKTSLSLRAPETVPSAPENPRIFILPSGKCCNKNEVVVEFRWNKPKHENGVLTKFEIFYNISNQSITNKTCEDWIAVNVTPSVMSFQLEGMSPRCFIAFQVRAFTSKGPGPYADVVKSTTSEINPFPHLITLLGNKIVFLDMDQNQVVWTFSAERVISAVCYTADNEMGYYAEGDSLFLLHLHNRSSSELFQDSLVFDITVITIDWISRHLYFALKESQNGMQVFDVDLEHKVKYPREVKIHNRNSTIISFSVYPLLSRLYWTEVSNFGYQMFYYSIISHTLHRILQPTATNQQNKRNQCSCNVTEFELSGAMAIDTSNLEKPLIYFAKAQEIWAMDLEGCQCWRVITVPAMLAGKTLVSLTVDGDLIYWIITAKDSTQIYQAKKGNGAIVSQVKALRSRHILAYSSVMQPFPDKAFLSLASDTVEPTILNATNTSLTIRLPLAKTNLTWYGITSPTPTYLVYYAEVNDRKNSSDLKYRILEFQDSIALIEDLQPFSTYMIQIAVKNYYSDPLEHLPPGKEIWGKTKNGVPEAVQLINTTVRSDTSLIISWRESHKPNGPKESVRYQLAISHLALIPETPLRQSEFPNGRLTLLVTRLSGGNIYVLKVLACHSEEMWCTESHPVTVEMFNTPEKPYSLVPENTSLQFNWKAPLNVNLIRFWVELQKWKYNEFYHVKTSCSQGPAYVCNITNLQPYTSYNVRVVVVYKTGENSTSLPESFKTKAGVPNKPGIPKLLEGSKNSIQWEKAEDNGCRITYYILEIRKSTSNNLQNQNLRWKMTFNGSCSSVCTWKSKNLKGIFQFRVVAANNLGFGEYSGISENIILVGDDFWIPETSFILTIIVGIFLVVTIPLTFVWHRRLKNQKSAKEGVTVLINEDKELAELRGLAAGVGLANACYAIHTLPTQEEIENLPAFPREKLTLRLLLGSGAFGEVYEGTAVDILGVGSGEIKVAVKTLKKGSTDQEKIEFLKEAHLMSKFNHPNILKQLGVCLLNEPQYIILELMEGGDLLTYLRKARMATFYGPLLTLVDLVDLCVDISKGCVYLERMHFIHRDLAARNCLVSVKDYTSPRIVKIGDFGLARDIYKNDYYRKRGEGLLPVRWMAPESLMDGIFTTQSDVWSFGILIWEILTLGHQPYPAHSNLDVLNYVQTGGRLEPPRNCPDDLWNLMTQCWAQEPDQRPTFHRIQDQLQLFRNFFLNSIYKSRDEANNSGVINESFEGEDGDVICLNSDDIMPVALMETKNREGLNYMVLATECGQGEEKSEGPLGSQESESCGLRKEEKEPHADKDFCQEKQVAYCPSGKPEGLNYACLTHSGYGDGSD

TESK1 = TESK1 (Homo sapiens, UniProt Q15569); settings: 1 μM; Run 1, Run 2
Sequence of TESK1 (Q15569 whole entry): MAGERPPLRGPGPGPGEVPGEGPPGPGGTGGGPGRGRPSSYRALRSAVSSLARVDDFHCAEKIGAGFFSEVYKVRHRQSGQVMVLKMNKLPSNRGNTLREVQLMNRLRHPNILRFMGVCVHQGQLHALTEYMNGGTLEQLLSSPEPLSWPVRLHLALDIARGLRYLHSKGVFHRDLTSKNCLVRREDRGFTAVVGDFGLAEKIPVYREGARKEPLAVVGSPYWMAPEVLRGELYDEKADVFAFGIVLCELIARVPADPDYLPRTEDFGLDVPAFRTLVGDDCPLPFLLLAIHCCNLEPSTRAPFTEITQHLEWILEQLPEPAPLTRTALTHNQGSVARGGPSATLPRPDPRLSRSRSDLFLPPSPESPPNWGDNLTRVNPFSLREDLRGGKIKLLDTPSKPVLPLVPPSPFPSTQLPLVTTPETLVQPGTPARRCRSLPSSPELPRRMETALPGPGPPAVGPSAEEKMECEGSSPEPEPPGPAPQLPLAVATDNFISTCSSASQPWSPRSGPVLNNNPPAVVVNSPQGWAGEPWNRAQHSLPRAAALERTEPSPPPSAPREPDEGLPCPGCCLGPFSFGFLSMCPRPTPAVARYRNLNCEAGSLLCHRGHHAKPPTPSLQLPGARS

VRK2 = VRK2 (Homo sapiens, UniProt Q86Y07); settings: 1 μM; Run 1, Run 2
Sequence of VRK2 (Q86Y07 whole entry, species assumed): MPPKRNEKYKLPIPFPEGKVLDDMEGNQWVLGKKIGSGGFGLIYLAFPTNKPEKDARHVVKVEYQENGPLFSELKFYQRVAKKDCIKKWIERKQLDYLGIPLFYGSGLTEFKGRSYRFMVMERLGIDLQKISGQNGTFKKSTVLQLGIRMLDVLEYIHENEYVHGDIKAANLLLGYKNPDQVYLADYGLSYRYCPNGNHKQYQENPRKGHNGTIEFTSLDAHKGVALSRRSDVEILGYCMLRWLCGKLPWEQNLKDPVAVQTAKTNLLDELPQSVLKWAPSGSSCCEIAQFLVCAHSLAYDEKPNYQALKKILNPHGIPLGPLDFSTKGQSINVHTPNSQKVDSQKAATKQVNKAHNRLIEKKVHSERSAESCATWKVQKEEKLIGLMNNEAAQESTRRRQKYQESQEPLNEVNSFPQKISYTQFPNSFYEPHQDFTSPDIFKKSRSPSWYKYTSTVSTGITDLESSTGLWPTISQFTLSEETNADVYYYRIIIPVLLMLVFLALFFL

c-MER = target: T3, c-MER (Homo sapiens, UniProt Q12866); assay: biochemical; settings: read-out: % enzyme activity, 1 μM; Run 1, Run 2
T3 sequence (Q12866 21-999): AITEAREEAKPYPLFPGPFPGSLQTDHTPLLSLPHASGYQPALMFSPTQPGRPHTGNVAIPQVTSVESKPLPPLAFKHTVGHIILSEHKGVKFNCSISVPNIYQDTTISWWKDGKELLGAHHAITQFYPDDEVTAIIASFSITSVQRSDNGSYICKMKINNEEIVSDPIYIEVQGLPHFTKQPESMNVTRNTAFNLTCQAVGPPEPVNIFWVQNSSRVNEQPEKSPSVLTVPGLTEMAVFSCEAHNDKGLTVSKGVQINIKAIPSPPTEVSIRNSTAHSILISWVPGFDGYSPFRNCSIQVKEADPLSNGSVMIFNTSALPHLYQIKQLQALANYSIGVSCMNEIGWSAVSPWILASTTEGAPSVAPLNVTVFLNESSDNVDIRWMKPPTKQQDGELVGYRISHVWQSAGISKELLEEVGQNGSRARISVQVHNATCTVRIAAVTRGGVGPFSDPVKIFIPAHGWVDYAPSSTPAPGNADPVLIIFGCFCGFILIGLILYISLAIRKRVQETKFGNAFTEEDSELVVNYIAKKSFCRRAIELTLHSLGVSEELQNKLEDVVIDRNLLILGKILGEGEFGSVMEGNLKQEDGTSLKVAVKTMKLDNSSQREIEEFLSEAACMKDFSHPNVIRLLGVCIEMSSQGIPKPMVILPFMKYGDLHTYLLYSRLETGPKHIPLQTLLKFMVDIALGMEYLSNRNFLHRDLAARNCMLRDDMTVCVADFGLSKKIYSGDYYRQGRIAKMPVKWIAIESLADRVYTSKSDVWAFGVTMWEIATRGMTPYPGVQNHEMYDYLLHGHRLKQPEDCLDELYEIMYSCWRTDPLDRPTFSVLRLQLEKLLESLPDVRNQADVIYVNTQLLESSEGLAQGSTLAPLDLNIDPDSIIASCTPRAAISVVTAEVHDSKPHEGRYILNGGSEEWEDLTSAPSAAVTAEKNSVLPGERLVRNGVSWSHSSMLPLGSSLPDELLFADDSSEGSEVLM

SNARK/NUAK2 = target: T4, SNARK/NUAK2 (Homo sapiens, UniProt Q9H093); assay: biochemical; settings: read-out: % enzyme activity, 1 μM; Run 1, Run 2
T4 sequence (Q9H093 1-628): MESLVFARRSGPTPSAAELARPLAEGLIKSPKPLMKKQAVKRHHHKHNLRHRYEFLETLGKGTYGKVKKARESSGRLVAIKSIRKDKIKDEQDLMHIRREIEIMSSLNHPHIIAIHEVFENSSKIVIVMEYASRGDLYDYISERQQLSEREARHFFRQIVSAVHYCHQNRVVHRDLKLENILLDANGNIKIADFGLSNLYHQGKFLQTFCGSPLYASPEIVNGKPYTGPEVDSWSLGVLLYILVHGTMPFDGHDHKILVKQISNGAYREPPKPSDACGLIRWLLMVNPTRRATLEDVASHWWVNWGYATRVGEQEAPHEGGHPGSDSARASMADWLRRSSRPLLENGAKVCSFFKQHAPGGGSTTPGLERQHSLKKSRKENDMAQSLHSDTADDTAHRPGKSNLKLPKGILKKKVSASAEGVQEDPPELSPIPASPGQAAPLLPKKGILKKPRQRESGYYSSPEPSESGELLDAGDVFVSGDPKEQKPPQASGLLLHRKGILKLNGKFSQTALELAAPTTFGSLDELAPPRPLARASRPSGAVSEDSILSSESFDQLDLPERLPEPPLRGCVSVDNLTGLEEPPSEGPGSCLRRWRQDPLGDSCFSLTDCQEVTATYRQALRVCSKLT

STK25/YSK1 = STK25/YSK1 (Homo sapiens, UniProt O00506); assay: biochemical; settings: read-out: % enzyme activity, 1 μM; Run 1, Run 2
Sequence of STK25/YSK1 (O00506 whole entry): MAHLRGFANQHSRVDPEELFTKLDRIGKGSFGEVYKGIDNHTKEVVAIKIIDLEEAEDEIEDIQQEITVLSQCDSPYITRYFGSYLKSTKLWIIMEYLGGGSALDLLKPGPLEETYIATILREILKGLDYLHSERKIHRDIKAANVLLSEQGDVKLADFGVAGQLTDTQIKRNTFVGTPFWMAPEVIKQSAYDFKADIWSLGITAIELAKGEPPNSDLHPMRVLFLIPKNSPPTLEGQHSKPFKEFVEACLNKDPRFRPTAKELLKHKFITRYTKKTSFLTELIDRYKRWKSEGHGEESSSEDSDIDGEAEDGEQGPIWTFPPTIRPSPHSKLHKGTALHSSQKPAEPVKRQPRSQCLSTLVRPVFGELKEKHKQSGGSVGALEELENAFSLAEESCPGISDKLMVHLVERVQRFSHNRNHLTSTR

Structure (SMILES) | % enzyme activity (ERK7/MAPK15) [%] | % enzyme activity (NEK2) [%] | % enzyme activity (ROS/ROS1) [%] | % enzyme activity (TESK1) [%] | % enzyme activity (VRK2) [%] | remaining activity at 1 µM (c-MER) [%] | remaining activity at 1 µM (SNARK/NUAK2) [%] | remaining activity at 1 µM (STK25/YSK1) [%]
COc1cc(-c2cncc(-c3ccc(N4CCN(C)CC4)cc3)c2C)cc(F)c1C(N)=O [Compound 26a, 2-Fluoro-6-methoxy-4-(4-methyl-5-(4-(4-methylpiperazin-1-yl)phenyl)pyridin-3-yl)benzamide] | 85.69 | 90.39 | 86.47 | 108.88 | 87.47 | 100 | 91.6 | 95.7
COc1cc(-c2cncc(-c3ccc(N4C[C@@H](C)N(C)[C@@H](C)C4)cc3)c2C)cc(F)c1C(N)=O [Compound 26c, 2-Fluoro-6-methoxy-4-(4-methyl-5-(4-((3R,5S)-3,4,5-trimethylpiperazin-1-yl)phenyl)pyridin-3-yl)benzamide] | 96.45 | 96.23 | 95.54 | 105.23 | 89.63 | 101 | 94 | 96.1
